One may read the EC50 as the midpoint of the concentration-response curve.

The values below come from ChEMBL document CHEMBL4808235, “Identification of 6-hydroxy-5-phenyl sulfonylpyrimidin-4(1H)-one APJ receptor agonists” (Bioorg Med Chem Lett, 2021).

Structures are written as SMILES.

Tested on in the first data set: not listed separately
The data set is described as follows: Permeability of the compound at pH 5.5 by PAMPA. In kind it is ADME. Particulars: read-out: permeability. On the technique in general: PAMPA measures passive passage across an artificial lipid membrane.
In the case of `CCCCc1[nH]c(=O)c(S(=O)(=O)c2ccc(-n3ccccc3=O)cc2)c(O)c1-c1c(OC)cccc1OC`, the Papp is 177 nm/s.
Same read-out and setting: the figure for `CCCCc1nc(=O)c(S(=O)(=O)c2ccc(-n3cc(Cl)ccc3=O)cc2)c(O)n1-c1c(OC)cccc1OC` is 83 nm/s.
As to `CCCCc1nc(=O)c(S(=O)(=O)c2ccc(-c3cccnc3OC)cc2)c(O)n1-c1c(OC)cccc1OC`, the Papp was found to be 456 nm/s.
For the compound `CCCCc1nc(=O)c(S(=O)(=O)c2ccc(-c3ccc(F)nc3)cc2)c(O)n1-c1c(OC)cccc1OC`, the Papp was 516 nm/s.
For the compound `COc1cccc(OC)c1-n1c(CCC(C)C)nc(=O)c(S(=O)(=O)c2ccc(-c3ccc(F)nc3)cc2)c1O`, the Papp was found to be 246 nm/s.

Tested on in a further data set: not listed separately
The data set is described as follows: Metabolic stability in human liver microsomes assessed as parent compound remaining incubated for 10 mins in presence of NADPH. In kind it is ADME, Microsome. Particulars: read-out: Stabilty. (Liver microsomes are a subcellular fraction often used to study metabolism.)
Consider `CCCCc1[nH]c(=O)c(S(=O)(=O)c2ccc(-n3ccccc3=O)cc2)c(O)c1-c1c(OC)cccc1OC`, for which the remaining at 10 min was 100%.
Same read-out and setting: the result for `CCCCc1nc(=O)c(S(=O)(=O)c2ccc(-n3cc(Cl)ccc3=O)cc2)c(O)n1-c1c(OC)cccc1OC` reads 94%.
Still for that read-out and setting: the result for `CCCCc1nc(=O)c(S(=O)(=O)c2ccc(-c3cccnc3OC)cc2)c(O)n1-c1c(OC)cccc1OC` reads 97%; that for `CCCCc1nc(=O)c(S(=O)(=O)c2ccc(-c3ccc(F)nc3)cc2)c(O)n1-c1c(OC)cccc1OC`, 100%; that for `COc1cccc(OC)c1-n1c(CCC(C)C)nc(=O)c(S(=O)(=O)c2ccc(-c3ccc(F)nc3)cc2)c1O`, 89%.

Tested on in another data set: not listed separately
The experiment in a line: Metabolic stability in rat liver microsomes assessed as parent compound remaining incubated for 10 mins in presence of NADPH. The class given is ADME, Microsome. Particulars: read-out: Stabilty.
Regarding `CCCCc1[nH]c(=O)c(S(=O)(=O)c2ccc(-n3ccccc3=O)cc2)c(O)c1-c1c(OC)cccc1OC`, the remaining at 10 min was found to be 100%.
As to `CCCCc1nc(=O)c(S(=O)(=O)c2ccc(-n3cc(Cl)ccc3=O)cc2)c(O)n1-c1c(OC)cccc1OC`, the remaining at 10 min worked out at 74%.
Still for that read-out and setting: the figure for `CCCCc1nc(=O)c(S(=O)(=O)c2ccc(-c3cccnc3OC)cc2)c(O)n1-c1c(OC)cccc1OC` is 27%; for `CCCCc1nc(=O)c(S(=O)(=O)c2ccc(-c3ccc(F)nc3)cc2)c(O)n1-c1c(OC)cccc1OC` it is 2%; for `COc1cccc(OC)c1-n1c(CCC(C)C)nc(=O)c(S(=O)(=O)c2ccc(-c3ccc(F)nc3)cc2)c1O` it is 1%.

A further data set deals with T1, Apelin receptor (Homo sapiens, UniProt P35414).
T1 sequence (P35414 whole entry): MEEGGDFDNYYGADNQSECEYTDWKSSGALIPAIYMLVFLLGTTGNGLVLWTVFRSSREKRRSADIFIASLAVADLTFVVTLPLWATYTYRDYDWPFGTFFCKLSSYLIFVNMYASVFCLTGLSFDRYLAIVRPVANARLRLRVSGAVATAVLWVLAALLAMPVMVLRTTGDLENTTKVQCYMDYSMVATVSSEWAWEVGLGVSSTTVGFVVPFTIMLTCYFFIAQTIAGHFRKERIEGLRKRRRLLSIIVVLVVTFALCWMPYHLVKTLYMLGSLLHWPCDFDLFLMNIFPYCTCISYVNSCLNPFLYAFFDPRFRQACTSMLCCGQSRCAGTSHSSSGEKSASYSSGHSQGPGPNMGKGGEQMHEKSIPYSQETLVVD
The experiment in a line: Agonist activity at human APJ receptor assessed as effect on cAMP accumulation by cAMP-Glo assay. In kind it is functional.
Conditions: not given
(In general: Cyclic AMP is a second messenger, typically raised through Gs and lowered through Gi signalling.)
On to `CCCCc1[nH]c(=O)c(S(=O)(=O)c2ccc(-n3ccccc3=O)cc2)c(O)c1-c1c(OC)cccc1OC`, for which the EC50 came to 0.5 nM.
Same read-out and setting: the figure for `CCCCc1nc(=O)c(S(=O)(=O)c2ccc(-n3cc(Cl)ccc3=O)cc2)c(O)n1-c1c(OC)cccc1OC` is 0.05 nM.
Same read-out and setting: the result for `CCCCc1nc(=O)c(S(=O)(=O)c2ccc(-c3cccnc3OC)cc2)c(O)n1-c1c(OC)cccc1OC` reads 0.01 nM.
Same read-out and setting: the result for `CCCCc1nc(=O)c(S(=O)(=O)c2ccc(-c3ccc(F)nc3)cc2)c(O)n1-c1c(OC)cccc1OC` reads 0.002 nM.

In another data set the target is T2, Apelin receptor (Rattus norvegicus, UniProt Q9JHG3).
T2 sequence (Q9JHG3 whole entry): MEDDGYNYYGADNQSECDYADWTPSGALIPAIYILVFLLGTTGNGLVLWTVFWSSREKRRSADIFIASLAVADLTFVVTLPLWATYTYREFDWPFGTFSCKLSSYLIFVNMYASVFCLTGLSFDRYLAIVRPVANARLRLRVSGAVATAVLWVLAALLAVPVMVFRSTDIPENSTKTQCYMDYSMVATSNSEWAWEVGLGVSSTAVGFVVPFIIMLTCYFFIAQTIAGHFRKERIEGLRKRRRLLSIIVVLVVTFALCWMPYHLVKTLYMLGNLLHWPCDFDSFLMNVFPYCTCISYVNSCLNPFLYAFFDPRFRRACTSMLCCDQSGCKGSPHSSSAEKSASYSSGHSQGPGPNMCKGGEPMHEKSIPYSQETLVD
The data set is described as follows: Agonist activity at rat APJ receptor assessed as effect on cAMP accumulation by cAMP-Glo assay.
Conditions: not given
In kind it is functional.
On to `CCCCc1[nH]c(=O)c(S(=O)(=O)c2ccc(-n3ccccc3=O)cc2)c(O)c1-c1c(OC)cccc1OC`, for which the concentration for a half-maximal effect (EC50) was determined as 3 nM.
Still for that read-out and setting: the figure for `CCCCc1nc(=O)c(S(=O)(=O)c2ccc(-n3cc(Cl)ccc3=O)cc2)c(O)n1-c1c(OC)cccc1OC` is 0.01 nM; for `CCCCc1nc(=O)c(S(=O)(=O)c2ccc(-c3cccnc3OC)cc2)c(O)n1-c1c(OC)cccc1OC` it is 0.02 nM.
In the case of `CCCCc1nc(=O)c(S(=O)(=O)c2ccc(-c3ccc(F)nc3)cc2)c(O)n1-c1c(OC)cccc1OC`, the EC50 turned out to be 0.004 nM.
Still for that read-out and setting: the result for `COc1cccc(OC)c1-n1c(CCC(C)C)nc(=O)c(S(=O)(=O)c2ccc(-c3ccc(F)nc3)cc2)c1O` reads 0.03 nM.

Tested on in the next data set: not listed separately
The experiment in a line: Permeability of the compound at pH 7.4 by PAMPA. The class given is ADME. The note with it: read-out: permeability.
For `CCCCc1[nH]c(=O)c(S(=O)(=O)c2ccc(-n3ccccc3=O)cc2)c(O)c1-c1c(OC)cccc1OC`, the Papp stood at 5 nm/s.
For `CCCCc1nc(=O)c(S(=O)(=O)c2ccc(-c3ccc(F)nc3)cc2)c(O)n1-c1c(OC)cccc1OC`, the Papp came out at 24 nm/s.
Same read-out and setting: the result for `COc1cccc(OC)c1-n1c(CCC(C)C)nc(=O)c(S(=O)(=O)c2ccc(-c3ccc(F)nc3)cc2)c1O` reads 35 nm/s.

Tested on in another data set: not listed separately
The data set is described as follows: Metabolic stability in mouse liver microsomes assessed as parent compound remaining incubated for 10 mins in presence of NADPH. Particulars: read-out: Stabilty. The class given is ADME, Microsome.
As to `CCCCc1[nH]c(=O)c(S(=O)(=O)c2ccc(-n3ccccc3=O)cc2)c(O)c1-c1c(OC)cccc1OC`, the remaining at 10 min was 75%.
Same read-out and setting: the result for `CCCCc1nc(=O)c(S(=O)(=O)c2ccc(-n3cc(Cl)ccc3=O)cc2)c(O)n1-c1c(OC)cccc1OC` reads 100%.
On the same count and under the same terms, the figure for `CCCCc1nc(=O)c(S(=O)(=O)c2ccc(-c3cccnc3OC)cc2)c(O)n1-c1c(OC)cccc1OC` is 98%.
Same read-out and setting: the figure for `CCCCc1nc(=O)c(S(=O)(=O)c2ccc(-c3ccc(F)nc3)cc2)c(O)n1-c1c(OC)cccc1OC` is 69%; for `COc1cccc(OC)c1-n1c(CCC(C)C)nc(=O)c(S(=O)(=O)c2ccc(-c3ccc(F)nc3)cc2)c1O` it is 31%.

The next data set concerns the target T3, Apelin receptor (Mus musculus, UniProt Q9WV08).
T3 sequence (Q9WV08 whole entry): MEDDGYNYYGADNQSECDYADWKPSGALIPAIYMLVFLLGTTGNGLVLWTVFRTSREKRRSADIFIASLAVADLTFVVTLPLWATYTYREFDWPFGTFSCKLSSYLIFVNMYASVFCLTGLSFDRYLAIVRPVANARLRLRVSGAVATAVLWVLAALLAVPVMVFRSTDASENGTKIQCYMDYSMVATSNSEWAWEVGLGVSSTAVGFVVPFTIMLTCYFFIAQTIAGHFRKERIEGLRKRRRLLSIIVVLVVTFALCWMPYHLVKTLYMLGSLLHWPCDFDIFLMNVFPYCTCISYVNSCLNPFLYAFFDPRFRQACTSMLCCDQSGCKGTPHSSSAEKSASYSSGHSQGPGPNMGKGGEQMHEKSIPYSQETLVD
The experiment in a line: Agonist activity at mouse APJ receptor assessed as effect on cAMP accumulation by cAMP-Glo assay.
Conditions: not given
Take `CCCCc1[nH]c(=O)c(S(=O)(=O)c2ccc(-n3ccccc3=O)cc2)c(O)c1-c1c(OC)cccc1OC`: the concentration for a half-maximal effect (EC50) was found to be 2 nM.
The same measure, in the same setting: the figure for `CCCCc1nc(=O)c(S(=O)(=O)c2ccc(-n3cc(Cl)ccc3=O)cc2)c(O)n1-c1c(OC)cccc1OC` is 0.02 nM; for `CCCCc1nc(=O)c(S(=O)(=O)c2ccc(-c3cccnc3OC)cc2)c(O)n1-c1c(OC)cccc1OC` it is 0.03 nM; for `CCCCc1nc(=O)c(S(=O)(=O)c2ccc(-c3ccc(F)nc3)cc2)c(O)n1-c1c(OC)cccc1OC` it is 0.02 nM.
